Reference: US20250275993A1, “GLYCOSYLATION INHIBITORS AS THERAPEUTICS FOR STROKE” (The Regents of the University of California, priority 2022, published 2025)

What was measured:
[1] = tested on: bovine choroidal microvascular endothelial cells (BCEC); experiment: BCEC proliferation assay (AlamarBlue / crystal violet); type: cell-based
Procedure: The effect of ManN on EC proliferation was assessed.
AlamarBlue detects mitochondria activity as an indication of cell viability which correlates with cell number at certain ranges.
Proliferation assays with BCECs and BRECs were performed. Log-phase growing BCECs or BRECs (passage <10) were trypsinized, re-suspended and seeded in 96-well plates (no coating) in low-glucose DMEM supplemented with 10% bovine calf serum, 2 mM glutamine, and antibiotics (growth medium), at a density of 1200-1500 cells per well in 200 μl volume. All reagents were added at the indicated final concentrations. After 3-6 days, cells were incubated with AlamarBlue for 4 hrs. Fluorescence was measured at 530 nm excitation wavelength and 590 nm emission wavelength. The experiments were repeated at least three times. […] 20% methanol or 0.05% DMSO served as negative controls. […] Human RMVECs and human adult DMVECs were split into Gelatin-coated 96 wells (2000 cells per well) in low glucose DMEM containing 10% FBS. 1200 cells/well was set up for proliferation assay in low glucose media containing 0.5% FBS. Data was collected at day 4 or 5. HUVEC (p7-10) were grown on gelatin-coated plate until it reached 70-80% confluency.
On the day of the assay, cells were dissociated with 0.05% trypsin, which was neutralized with 0.5% FBS-containing EBM. Cells were briefly spun and then re-suspended in 0.5% FBS-media. Cells were counted and plated in 96-well, 1000 cells/well. Triplicate wells were used for each treatment. Data were collected at day 3, and then cells were fixed in 4% paraformaldehyde for 15 min before adding crystal violet. Cell-covered areas were quantified after taking pictures by Image J software.

ischemic hindlimb = experiment: Hindlimb ischemia model and evaluation of blood flow; type: in vivo, mouse; details: for blood vessel density vs H2O-treated control (CD31): 3 weeks post-ligation; for blood flow recovery one week after surgery: 20% ManN orally or 1 mg/ml Kif ip every other day, H2O group 25%
Procedure: The angiogenic effects of ManN and Kif in a mouse hindlimb ischemia model were assessed. The activity of ManN in a chronic ischemia model that might more specifically reflect its effects as an endothelial cell mitogen and a pro-angiogenic factor was assessed, and the hindlimb ischemia model in the mouse was considered. Several variants have been described, depending on which vessel is occluded. The variant chosen consists in ligation and excision of the femoral artery, which results in more severe ischemia compared to simple femoral artery ligation. Occlusion of two vessels produces more severe ischemia, but has the disadvantage of inducing severe pain and distress, as well as frequent ulcerations and necrosis in mice.
Oral administration of ManN was tested in this femoral artery ligation-excision model. Since Kif has been previously administered intraperitoneally for in vivo studies, this route was employed. Laser Doppler Perfusion Imaging (LDPI) was used as a non-invasive method to monitor time and extent of the blood flow recovery in the ischemic limb. Serial examination of blood flow was taken with LDPI and increment of the perfusion ratio of ischemic (ligated; left side) to non-ischemic (sham; right side) hindlimbs after ligation was used to indicate a recovery of blood flow. Starting immediately after surgery, mice were orally fed with 20% ManN or 1 mg/ml Kif ip every other day, as described in methods. One week after surgery, the perfusion ratio in H2O-fed group indicated a blood flow recovery of […], a value that is in good agreement with published data with the same type of lesion, in the same strain of mice.
C57BL/6 male mice (6-8 weeks old) were subjected to unilateral hindlimb surgery under anesthesia with ketamine/xylazine cocktail. Briefly, the left femoral artery was separated from the vein and nerve, ligated proximally, and excised. The right hindlimb served as control. Blood flow was measured by using a laser Doppler perfusion imager (PeriScan PSI; Perimed). Ischemic and nonischemic limb perfusion was measured before and after surgery and 1, 2 and 3 weeks later. After surgery, mice were randomly allocated to different groups (8 mice for each group). 200 μl of 20% ManN was orally administrated every other day from 3rd day after surgery. 200 μl of 1 mg/nil Kif was administrated through ip injection every other day. H2O was used as a vehicle control. The final blood flow values were expressed as the ratio of ischemic to nonischemic hindlimb perfusion from the same animal. Quantification of blood vessel area was carried out as described.

retinal vasculature = experiment: Retinal neovascularization after intravitreal injection; type: in vivo, mouse; details: 500 ng ManN or Kif, 200 ng bFGF intravitreally; after seven days
Procedure: The effect of ManN and Kif on inducing retinal neovascularization was assessed. The findings in cultured eye-derived EC were extended to a suitable in vivo model system. The mouse retina has been used extensively over the past decades to study both physiological and pathological angiogenesis. To obtain a detailed description of the retinal vasculature, images from retinal flat mounts were processed for vascular area fraction (ratio of area covered by blood vessels to total retinal area). Using this model, the effects of ManN in retinal neovascularization were assessed. Kif was also tested in this model because it is a water-soluble inhibitor and its mechanism of glycosylation inhibition is well established. In addition, it shares with ManN the ability to activate ERK, AKT and stress pathways in BCEC (FIG. 7E).
Assessment of retinal angiogenesis following intravitreal administration was done. Briefly, 6-8 weeks old C57BL/6 male mice were randomly allocated to different groups and anesthetized with ketamine/Xylazine cocktail. The indicated amounts of ManN, Kif or bFGF (R&D systems, AF-233-NA) in 1 μl of PBS and PBS vehicle control were injected intravitreally with a 33-gauge Hamilton syringe. Seven days after injection, animals were euthanized. Eyes were then enucleated and fixed in 4% paraformaldehyde (PFA) for 30 mins. Retinas were separated and stained with anti-CD31 immunofluorescence (IF) to evidence the vasculature. Evaluations were performed by an investigator blinded to the treatment. For CD31 IF, rat anti-mouse antibody (BD Biosciences, CAT #550274) was diluted 1:100 and incubated overnight at 4° C. After 4-hour incubation with the Alexa Fluor-488-conjugated anti-rat antibody (Life Technologies, A11006), whole mounts were imaged via the 488 nm channel using AIR Confocal STORM super-resolution system (Nikon). Quantification of vascular density in choroids and retina was carried out by Image J. Each experiment was repeated three times with similar results, and each treatment group consists of 5 individual samples.

BCECs = experiment: Cellular uptake of ManN and conversion to ManN-6P (HPAEC-PAD); type: in vitro ADME, bovine

Row | SMILES | BCEC proliferation by glycosylation inhibitors ([1]; 0.01 to 100 μM, 3 days, absence or presence of 5 ng/ml VEGF) | blood vessel density vs H2O-treated control (CD31) (ischemic hindlimb) | blood flow recovery one week after surgery (ischemic hindlimb) | increase in density of retinal vessels vs PBS group (retinal vasculature) | additivity with VEGF in promoting BCEC proliferation ([1]; 5 ng/ml VEGF) | additivity with bFGF in promoting BCEC proliferation ([1]; 20 ng/ml bFGF, FIG. 11A) | shape of dose-response on BCEC proliferation ([1]; 0.5 μM to 1 mM, 5-6 days, with or without VEGF) | dose range with significant stimulatory effects on BCEC proliferation ([1]; BCEC) | maximal fold increase in EC-covered surface ([1]; ManN at 50 μM alone, crystal violet, FIG. 1A) | cytotoxicity in glucose-free media ([1]; as little as 4 μM ManN, even in the presence of VEGF) | additivity between ManN and VEGF in glucose-free media ([1]; glucose-free media) | incorporation of ManN in N-glycans (BCECs; BCECs) | ManN detected in cell lysate (BCECs; BCECs treated with 400 μM ManN for 2 hours)
1 | O=C1N[C@@H]2[C@@H](O)[C@@H](O)[C@H](O)[C@@H](CO)N2C1=O [Kif, Kifunensine, reference compound] | stimulated in a dose-dependent fashion | 1.8 times higher | ~47% | ~20% |  |  |  |  |  |  |  |  | 
2 | N[C@H](C=O)[C@@H](O)[C@H](O)[C@H](O)CO [ManN, 2-Amino-2-deoxy-D-mannose] |  | 2.3 times higher | about 40% | ~30% | additive with VEGF in promoting BCEC proliferation | Additive effects | bell-shaped dose-response curve, with inhibition at higher concentrations | 5-500 UM | ~6.5 fold | significant cytotoxicity | abolished | No incorporation | 0.66 nmol in 1 mg cell lysate
